For the experiment, the system named is oxazolone-induced contact hypersensitivity in mice. The experiment in a line: oxazolone-induced contact hypersensitivity (hapten-specific increase in ear thickness at 24 hours). The class given is in vivo, mouse. The following applies: for effect on CSH/CHS response to oxazolone, systemic administration: systemic (i.p.) administration. An excerpt:
8-12 week old female C57B1/6 mice were purchased from Taconic Farms. Inc. (Germantown, N.Y.). The CD1d-null allele (generated in a 129×C57B1/6 founder (25) (26) was backcrossed 7 generations into the C57B1/6 strain. (15) Homozygous CD1d deficient mice were obtained from littermate pairings and used to generate heterozygote CD1d deficient and wild type controls. Breeding pairs of mice deficient for CD1d on the BALB/c background were purchased from Jackson Labs (Bar Harbor, Me.). The C57B1/6 and BALB/c J 281 null mice were established by specific deletion of the J 281 gene segment (27) (28). All mouse experiments were approved and conducted under IACUC guidelines.
Mice at least seven weeks of age were sensitized epicutaneously on day 0 with 70 μl of 4% 4-ethoxymethylene-2-phenyl-2-oxazolin-5-one (oxazolone, Sigma, St. Louis, Mo.) in acetone/olive oil (4/1) and challenged five days later on the right ear with 20 μl of 0.5% oxazolone or carrier only on the left ear. The hapten-specific increase in ear thickness at 24 hours was determined with a micrometer.
Mice received a series of 5 intraperitoneal injections of either 2 μg of αManCer (2 μg i.p. diluted in a solution of phosphate buffered saline and 0.5% Tween-20 every other day, starting 3 days prior to skin sensitization and continuing through to re-challenge.
Significant differences between groups were evaluated with a Mann-Whitney test, or where appropriate, a two tailed Student's t test. Mean differences were considered significant when p<0.05.

Entries after “also recorded” stand apart in the source; their conditions may differ.

Regarding “1,2-Dipalmitoyl-sn-Glycero-3-Phosphoethanolamine-N-[Poly(ethylene glycol) 2000] [DPPE-PEG]”, under “result in words”, the “effect on CSH/CHS response to oxazolone, systemic administration” value is “inhibited CHS as effectively as α-ManCer”. Besides, the “inhibition of oxazolone-induced CSH in MHC-unrelated mouse strains” value (topical 100 mg/ml, SWR, C57B1/10, DBA, BALB/c mice, FIG. 5, result in words) is on record as “effective inhibitor in all strains tested”. The “Half-maximal inhibition of CSH (topical concentration)” value (topical, applied with 4% oxazolone at sensitization, wild type C57B1/6 mice, FIG. 4A) is 25 mg/mL. Also, the “inhibition of contact hypersensitivity, inhibitor present at both phases” value (topical, during both priming and recall, FIG. 4B, result in words) is listed as “maximally inhibited”. For the same compound, the “inhibition of contact hypersensitivity, inhibitor present in one phase only” value (topical, only during priming or only during recall, FIG. 4B, result in words) was “also inhibited, but to a lesser extent”. The “inhibition of oxazolone-induced contact hypersensitivity, topical at sensitization” value (topical, with oxazolone on day 0 (100 mg/ml, or increasing doses 0-100 mg/ml), FIG. 3, 4A, result in words) is reported as “inhibits oxazolone-induced contact hypersensitivity; also recorded: inhibit oxazolone-induced hypersensitivity in a dose-dependent manner”.

`CCCCCCCCCCCCCCCC(=O)O` [palmitic acid, reference compound]: the “inhibition of CSH by control substances (specificity)” value (specificity controls for DPPE-PEG, FIG. 2 and data not shown, result in words) is recorded as “neither palmitic acid, nor PEG alone were effective inhibitors of CSH”.

Take `CCCCCCCCCCCCCCCCCCCCCCCCCC(=O)N[C@@H](COC1O[C@H](CO)[C@H](O)[C@H](O)[C@H]1O)[C@H](O)[C@H](O)CCCCCCCCCCCCCC` (stereo partly drawn) [α-GalCer, (2S,3S,4R)-1-O-(-D-galactopyranosyl)-2-(N-hexacosanoylamino)-1,3,4-octadecanetriol, reference compound]: the “effect on CSH/CHS response to oxazolone, systemic administration” value (result in words) was “did not alter the CSH response”.
